The results in this text go back to patent US20090227450A1, “Triazole-Based Fungicidal Mixtures” (BASF Aktiengesellschaft, priority 2005, published 2009).

The test system of the test is Botrytis cinerea. As to the kind of experiment: Activity against the gray mold pathogen Botrytis cinerea in the microtiter test (Botrci). The note with it: microtiter plate, 405 nm, day 7 after inoculation. The test is classed as cell-based. How it is done: The expected efficacies of active compound combinations were determined using Colby's formula (Colby, S. R. “Calculating synergistic and antagonistic responses of herbicide combinations”, Weeds, 15, 20-22, 1967) and compared with the observed efficacies.
E=x+y−x·y/100 • E expected efficacy, expressed in % of the untreated control, when using the mixture of the active compounds A and B at the concentrations a and b • x efficacy, expressed in % of the untreated control, when using the active compound A at the concentration a • y efficacy, expressed in % of the untreated control, when using the active compound B at the concentration b
The active compounds were formulated separately as a stock solution having a concentration of 10 000 ppm in DMSO.
The active compound epoxiconazole was used as a commercial formulation.
The stock solution is pipetted onto a microtiter plate (MTP) and diluted to the stated active compound concentration using a malt-based aqueous nutrient medium for fungi. An aqueous spore suspension of Botrytis cinerea was then added. The plates were placed in a water vapor-saturated chamber at temperatures of 18° C. Using an absorption photometer, the MTPs were measured at 405 nm on day 7 after the inoculation. The measured parameters were compared to the growth of the active compound-free control variant and the fungus- and active compound-free blank value to determine the relative growth in % of the pathogens in the individual active compounds.
The visually determined values for the percentage of infected leaf area were initially converted into a mean value and then converted into efficacies in % of the untreated control. An efficacy of 0 means the same degree of infection as in the untreated control, an efficacy of 100 means 0% infection. The expected efficacies for active compound combinations were determined using Colby's formula (Colby, S. R. (Calculating synergistic and antagonistic responses of herbicide combinations”, Weeds, 15, pp. 20-22, 1967) and compared to the observed efficacies.

Consider `CO/C=C(/C(=O)OC)c1ccccc1COc1cccc(C(F)(F)F)n1` [Picoxystrobin, picoxystrobin], for which the “Observed effect (%)” value stood at 0% (conc. 0.004 ppm) and 3% (conc. 0.25 ppm).
`Fc1ccc(C2(Cn3cncn3)OC2c2ccccc2Cl)cc1` (stereo not shown) [Epoxiconazole, epoxiconazole]: the “Observed effect (%)” value is 15% (conc. 0.016 ppm) and 48% (conc. 0.063 ppm).
